Tests used:
Format in all cases: functional
SNB-19 = test: Cytotoxicity against human SNB19 cells assessed as growth inhibition
HOP-92 = test: Cytotoxicity against human HOP92 cells assessed as growth inhibition
SK-MEL-5 = test: Cytotoxicity against human SK-MEL-5 cells assessed as growth inhibition
RXF 393 = test: Cytotoxicity against human RXF393 cells assessed as growth inhibition
SK-OV-3 = test: Cytotoxicity against human SKOV3 cells assessed as growth inhibition
CCRF-CEM = test: Cytotoxicity against human CCRF-CEM cells assessed as growth inhibition
NCI-H460 = test: Cytotoxicity against human NCI-H460 cells assessed as growth inhibition
NCI-H23 = test: Cytotoxicity against human NCI-H23 cells assessed as growth inhibition
U-251 = test: Cytotoxicity against human U251 cells assessed as growth inhibition
A549 = test: Cytotoxicity against human A549 cells assessed as growth inhibition
CAKI-1 = test: Cytotoxicity against human CAKI-1 cells assessed as growth inhibition
DU-145 = test: Cytotoxicity against human DU145 cells assessed as growth inhibition
MDA-MB-231 = test: Cytotoxicity against human MDA-MB-231 cells assessed as growth inhibition
TK-10 = test: Cytotoxicity against human TK10 cells assessed as growth inhibition
MDA-MB-468 = test: Cytotoxicity against human MDA-MB-468 cells assessed as growth inhibition
COLO 205 = test: Cytotoxicity against human COLO205 cells assessed as growth inhibition
SF-539 = test: Cytotoxicity against human SF539 cells assessed as growth inhibition
IGROV-1 = test: Cytotoxicity against human IGROV1 cells assessed as growth inhibition
M14 = test: Cytotoxicity against human M14 cells assessed as growth inhibition
NCI-H522 = test: Cytotoxicity against human NCI-H522 cells assessed as growth inhibition
T47D = test: Cytotoxicity against human T47D cells assessed as growth inhibition
Malme-3M = test: Cytotoxicity against human MALME-3M cells assessed as growth inhibition
[1] = Cytotoxicity against human UACC257 cells assessed as growth inhibition; details: UACC-257
[2] = Cytotoxicity against human OVCAR5 cells assessed as growth inhibition; details: OVCAR-5
BT-549 = test: Cytotoxicity against human BT549 cells assessed as growth inhibition
786-0 = test: Cytotoxicity against human 786-0 cells assessed as growth inhibition
HOP-62 = test: Cytotoxicity against human HOP62 cells assessed as growth inhibition
SF-268 = test: Cytotoxicity against human SF268 cells assessed as growth inhibition
[3] = Cytotoxicity against human UACC62 cells assessed as growth inhibition; details: UACC-62
MDA-MB-435 = test: Cytotoxicity against human MDA-MB-435 cells assessed as growth inhibition
MOLT-4 = test: Cytotoxicity against human MOLT4 cells assessed as growth inhibition
K562 = test: Cytotoxicity against human K562 cells assessed as growth inhibition
HL-60(TB) = test: Cytotoxicity against human HL-60(TB) cells assessed as growth inhibition
SF-295 = test: Cytotoxicity against human SF295 cells assessed as growth inhibition
ACHN = test: Cytotoxicity against human ACHN cells assessed as growth inhibition
SK-MEL-28 = test: Cytotoxicity against human SK-MEL-28 cells assessed as growth inhibition
[4] = Cytotoxicity against human HCT15 cells assessed as growth inhibition; details: HCT-15
RPMI-8226 = test: Cytotoxicity against human RPMI8226 cells assessed as growth inhibition
SW-620 = test: Cytotoxicity against human SW620 cells assessed as growth inhibition
SNB-75 = test: Cytotoxicity against human SNB75 cells assessed as growth inhibition
PC-3 = test: Cytotoxicity against human PC3 cells assessed as growth inhibition
[5] = Cytotoxicity against human EKVX cells assessed as growth inhibition
SK-MEL-2 = test: Cytotoxicity against human SK-MEL-2 cells assessed as growth inhibition
[6] = Cytotoxicity against human OVCAR4 cells assessed as growth inhibition; details: OVCAR-4
[7] = Cytotoxicity against human UO31 cells assessed as growth inhibition; details: UO-31
HT-29 = test: Cytotoxicity against human HT-29 cells assessed as growth inhibition
SN12C = test: Cytotoxicity against human SN12C cells assessed as growth inhibition
NCI-H226 = test: Cytotoxicity against human NCI-H226 cells assessed as growth inhibition
HCT-116 = test: Cytotoxicity against human HCT116 cells assessed as growth inhibition
NCI-H322M = test: Cytotoxicity against human NCI-H322M cells assessed as growth inhibition
A498 = test: Cytotoxicity against human A498 cells assessed as growth inhibition
[8] = Cytotoxicity against human OVCAR3 cells assessed as growth inhibition; details: OVCAR-3
[9] = Cytotoxicity against human OVCAR8 cells assessed as growth inhibition; details: OVCAR-8
LOX IMVI = test: Cytotoxicity against human LOXIMVI cells assessed as growth inhibition
KM12 = test: Cytotoxicity against human KM12 cells assessed as growth inhibition
SR = test: Cytotoxicity against human SR cells assessed as growth inhibition
[10] = Cytotoxicity against human Hs 578T cells assessed as growth inhibition
[11] = Cytotoxicity against human NCI-ADR-RES cells assessed as growth inhibition
HCC 2998 = test: Cytotoxicity against human HCC2998 cells assessed as growth inhibition
MCF7 = test: Cytotoxicity against human MCF7 cells assessed as growth inhibition

Q: With Cc1cc(/C=C2\CCc3c([nH]c4ccccc34)C2=O)cc(C)c1O as the molecule, how does the GI50 (SNB-19) read?
A: Its GI50 is 0.58 µM.

Q: And the GI50 (HOP-92)?
A: Its GI50 is 0.78 µM.

Q: And the GI50 (SK-MEL-5)?
A: The GI50 was 0.33 µM.

Q: What about the GI50 (RXF 393) of the same molecule?
A: Its GI50 is 0.52 µM.

Q: What about the GI50 (SK-OV-3) of the same molecule?
A: Its GI50 is 0.47 µM.

Q: And the GI50 (CCRF-CEM)?
A: Its GI50 is 0.36 µM.

Q: And the GI50 (NCI-H460)?
A: The GI50 was 0.41 µM.

Q: And the GI50 (NCI-H23)?
A: The GI50 was 0.65 µM.

Q: What about the GI50 (U-251) of the same molecule?
A: Its GI50 is 0.43 µM.

Q: What about the GI50 (A549) of the same molecule?
A: Its GI50 is 0.55 µM.

Q: What about the GI50 (CAKI-1) of the same molecule?
A: Its GI50 is 0.61 µM.

Q: And the GI50 (DU-145)?
A: Its GI50 is 0.54 µM.

Q: And the GI50 (MDA-MB-231)?
A: Its GI50 is 1.06 µM.

Q: And the GI50 (TK-10)?
A: The GI50 was 0.54 µM.

Q: And the GI50 (MDA-MB-468)?
A: The GI50 was 0.29 µM.

Q: What about the GI50 (COLO 205) of the same molecule?
A: The GI50 was 14.2 µM.

Q: What about the GI50 (SF-539) of the same molecule?
A: Its GI50 is 0.32 µM.

Q: And the GI50 (IGROV-1)?
A: The GI50 was 0.74 µM.

Q: And the GI50 (M14)?
A: Its GI50 is 0.34 µM.

Q: And the GI50 (NCI-H522)?
A: The GI50 was 0.13 µM.

Q: What about the GI50 (T47D) of the same molecule?
A: Its GI50 is 0.74 µM.

Q: And the GI50 (Malme-3M)?
A: The GI50 was 0.38 µM.

Q: What about the GI50 [1] of the same molecule?
A: Its GI50 is 0.37 µM.

Q: What about the GI50 [2] of the same molecule?
A: Its GI50 is 2.35 µM.

Q: What about the GI50 (BT-549) of the same molecule?
A: The GI50 was 0.53 µM.

Q: What about the GI50 (786-0) of the same molecule?
A: Its GI50 is 0.88 µM.

Q: What about the GI50 (HOP-62) of the same molecule?
A: The GI50 was 0.65 µM.

Q: And the GI50 (SF-268)?
A: The GI50 was 0.73 µM.

Q: And the GI50 [3]?
A: The GI50 was 0.42 µM.

Q: What about the GI50 (MDA-MB-435) of the same molecule?
A: The GI50 was 0.12 µM.

Q: What about the GI50 (MOLT-4) of the same molecule?
A: Its GI50 is 0.56 µM.

Q: What about the GI50 (K562) of the same molecule?
A: Its GI50 is 0.32 µM.

Q: And the GI50 (HL-60(TB))?
A: Its GI50 is 0.21 µM.

Q: What about the GI50 (SF-295) of the same molecule?
A: The GI50 was 1.88 µM.

Q: What about the GI50 (ACHN) of the same molecule?
A: Its GI50 is 0.77 µM.

Q: What about the GI50 (SK-MEL-28) of the same molecule?
A: The GI50 was 0.74 µM.

Q: What about the GI50 [4] of the same molecule?
A: The GI50 was 0.42 µM.

Q: And the GI50 (RPMI-8226)?
A: The GI50 was 0.47 µM.

Q: And the GI50 (SW-620)?
A: The GI50 was 0.41 µM.

Q: And the GI50 (SNB-75)?
A: The GI50 was 0.29 µM.

Q: What about the GI50 (PC-3) of the same molecule?
A: The GI50 was 1.06 µM.

Q: What about the GI50 [5] of the same molecule?
A: Its GI50 is 3.38 µM.

Q: What about the GI50 (SK-MEL-2) of the same molecule?
A: Its GI50 is 0.32 µM.

Q: What about the GI50 [6] of the same molecule?
A: Its GI50 is 1.35 µM.

Q: And the GI50 [7]?
A: Its GI50 is 0.45 µM.

Q: What about the GI50 (HT-29) of the same molecule?
A: Its GI50 is 4.32 µM.

Q: And the GI50 (SN12C)?
A: Its GI50 is 0.62 µM.

Q: What about the GI50 (NCI-H226) of the same molecule?
A: Its GI50 is 3.29 µM.

Q: What about the GI50 (HCT-116) of the same molecule?
A: The GI50 was 0.44 µM.

Q: And the GI50 (NCI-H322M)?
A: The GI50 was 0.53 µM.

Q: What about the GI50 (A498) of the same molecule?
A: The GI50 was 1.83 µM.

Q: And the GI50 [8]?
A: Its GI50 is 0.33 µM.

Q: What about the GI50 [9] of the same molecule?
A: The GI50 was 0.53 µM.

Q: What about the GI50 (LOX IMVI) of the same molecule?
A: The GI50 was 0.76 µM.

Q: What about the GI50 (KM12) of the same molecule?
A: The GI50 was 0.39 µM.

Q: And the GI50 (SR)?
A: Its GI50 is 0.22 µM.

Q: What about the GI50 [10] of the same molecule?
A: The GI50 was 0.38 µM.

Q: And the GI50 [11]?
A: The GI50 was 0.31 µM.

Q: And the GI50 (HCC 2998)?
A: The GI50 was 2.21 µM.

Q: What about the GI50 (MCF7) of the same molecule?
A: The GI50 was 0.35 µM.

Reference: ChEMBL document CHEMBL3217497, “Design, synthesis and antiproliferative activity of indole analogues of indanocine” (2013)
